Assay results: patent publication US20120251628A1, “COMPOSITIONS AND METHODS FOR TREATMENT OF CANCER” (priority 2011, published 2012)

What was measured:
[1] = test system: acute promyelocytic leukemia (APL); details: patients to which arsenic trioxide was administered; cited from earlier work
[2] = test system: CT26 (mouse colon cancer); test: DCE-MRI of tumor vascularity (Kep) in CT26 tumor mice; format: in vivo
Procedure: To determine whether the occurrence of central necrosis of tumors 24 hours after treatment was caused by the reduction of vascularity, DCE-MRI was used before the medication was administered and 24 hours after administration.
Inoculate CT26 (mouse colon cancer) 2×10^6 cell subcutaneously into mice on the upper parts of their thighs.
After checking the tumor size between 6 to 10 mm, acquire images through MRI.
Image Acquisition: Use a magnetic resonance imaging device (i.e., 3 Tesla Intera human clinical scanner; Philips medical systems) and a mouse coil with an inner diameter of 4 cm to get images. Acquire images before the drug is administered and those 24 hours after that for two days.
MR Pulse Sequence as follows: Dynamic Contrast enhanced MRI scan: FOV (mm)=50×35; RFOV (%)=71; Matrix scan=112; reconstruction=224; TR/TE (ms)=12/4.0; slice thickness=1 mm; slice number=11; dynamic scans=60.
i. Conduct an experiment to the subjects under anesthesia by using an inhalation anesthetic mixing 1.5% isoflurane in 100% oxygen at a flow rate of 1 L/min.
ii. Cannulate an intravenous injection line through the tail vein to inject a contrast agent.
iii. Use Gd-DTPA (Magnevist, Schering, Germany, 281 mg/kg) as a contrast agent and get pre-contrast images before injecting the contrast agent and post-contrast images after injecting it.
iv. After getting the images, inject KML001 (10 mg/kg) and Arsenic trioxide (7.5 mg/kg) intraperitoneally.
v. Get images through a dynamic scan again 24 hours after injection.
Accordingly, the groups of animals with which the DCE-MRI data was obtained are as follows: Group of animals treated with ATO: n=4, Group of animals treated with Saline: n=4 and Group of animals treated with KML001: n=6.
As the low data in MRI was mapped from each result of the DCE-MRI to the positive control group of animals treated with ATO, the negative control group of animals treated with saline and the experimental group of animals treated with KML001, Kep values important for tumor vascularity were calculated. Kep (rate constant) is the back diffusion rate constant from interstitial space to vascular space, reflecting leakage of tumor vessels, i.e., a measurement of vascularity.

## arsenic trioxide [ATO, reference compound]
[1]
  patients showing therapeutic effects without acute toxicity: more than 80%
[2]; 24 hours after intraperitoneal injection vs pre-treatment, KML001 10 mg/kg, ATO 7.5 mg/kg
  Kep values (back diffusion rate constant, tumor vascularity): significantly reduced
[2]; 24 hours after treatment
  contrast enhancement of the tumors in the MRI: decreased
